Assay results as given in patent US5232926A, “Morphinane-skeletoned hydrazone derivatives” (priority 1992, dated 1993).

Columns and labels:
[1] = Hot plate test (analgetic activity); format: in vivo; conditions: sc.
[2] = Tail Flick test (analgetic activity); format: in vivo; conditions: read-out: Tail Flick ED50
[3] = Sensitivity to light; format: physicochemical; conditions: effect of light

COc1ccc2c3c1O[C@H]1C(=NNc4ccccc4)CC[C@H]4[C@@H](C2)N(C)CC[C@]314 [Dihydrocodeinone phenylhydrazone]
ED50 [1]: 2.4 mg/kg
ED50 ([2]; sc.): 2.3 mg/kg

COc1ccc2c3c1O[C@H]1C(=NNc4ccccc4)CC[C@@]4(O)[C@@H](C2)N(C)CC[C@]314 [Oxycodone phenylhydrazone, 14-OH-dihydrocodeinone phenylhydrazone]
ED50 [1]: 0.8 mg/kg
ED50 ([2]; sc.): 1.2 mg/kg

COc1ccc2c3c1O[C@H]1C(=NNC(N)=S)CC[C@H]4[C@@H](C2)N(C)CC[C@]314 [Dihydrocodeinone thiosemicarbazone]
ED50 [1]: 1.7 mg/kg
ED50 ([2]; sc.): 0.6 mg/kg

COc1ccc2c3c1O[C@H]1C(=NNc4ccccc4)C=C[C@@]4(O)[C@@H](C2)N(C)CC[C@]314 [14-OH-codeinone phenylhydrazone]
sensitivity to light [3]: sensitive to light, it turns to yellow due to the effect of light

CN1CC[C@]23c4c5ccc(O)c4O[C@H]2C(=NNC(N)=O)CC[C@H]3[C@H]1C5 [Dihydromorphinone semicarbazone]
ED50 [1]: 0.085 mg/kg
ED50 ([2]; sc.): 0.13 mg/kg

CN1CC[C@]23c4c5ccc(O)c4O[C@H]2C(=NNc2ccc([N+](=O)[O-])cc2[N+](=O)[O-])CC[C@@]3(O)[C@H]1C5 [Oxymorphone dinitrophenylhydrazone, 14-OH-dihydromorphinone-2,4-dinitrophenyl hydrazone]
ED50 [1]: 0.37 mg/kg
ED50 ([2]; sc.): 0.27 mg/kg

CN1CC[C@]23c4c5ccc(O)c4O[C@H]2C(=NNc2ccc([N+](=O)[O-])cc2[N+](=O)[O-])CC[C@H]3[C@H]1C5 [Dihydromorphinone dinitrophenylhydrazone, Dihydromorphinone-2,4-dinitrophenyl hydrazone]
ED50 [1]: 0.27 mg/kg
ED50 ([2]; sc.): 0.18 mg/kg

CN1CC[C@]23c4c5ccc(O)c4O[C@H]2[C@@H](O)C=C[C@H]3[C@H]1C5 [Morphine, reference compound]
Hot plate test ED50 [1]: 3.6 mg/kg
ED50 ([2]; sc): 5 mg/kg

CN1CC[C@]23c4c5ccc(O)c4O[C@H]2C(=NNC(N)=O)CC[C@@]3(O)[C@H]1C5 [Oxymorphone semicarbazone, 14-OH-dihydromorphinone semicarbazone]
ED50 [1]: 0.9 mg/kg
ED50 ([2]; sc.): 0.9 mg/kg

COc1ccc2c3c1O[C@H]1C(=NNC(N)=O)CC[C@H]4[C@@H](C2)N(C)CC[C@]314 [Dihydrocodeinone semicarbazone, Dihydrocodeinonesemicarbazone]
ED50 [1]: 0.38 mg/kg
ED50 ([2]; sc.): 0.35 mg/kg

COc1ccc2c3c1O[C@H]1C(=NNC(N)=O)CC[C@@]4(O)[C@@H](C2)N(C)CC[C@]314 [Oxycodone semicarbazone, 14-OH-dihydrocodeinonesemicarbazone]
ED50 [1]: 0.58 mg/kg
ED50 ([2]; sc.): 0.45 mg/kg
